Data taken from patent US20230219886A1, “NOVEL SELENO-NSAID ANALOGS AND USES THEREOF” (THE PENN STATE RESEARCH FOUNDATION, priority 2020, published 2023).
Where two headings read alike, the source gives them in different places.

Experiments:
[1] = tested on: PANC-1 (pancreatic carcinoma); assay: MTT cell viability assay, Panc-1; details: for cell viability: 48 h
Description: (§1) Cell Culture Conditions. The cell lines were obtained from the American Type Culture Collection (ATCC). PANC-1 and Caco-2 cell lines were maintained in DMEM medium (Gibco); HT-29, HCT-116 and RKO cells were maintained in McCoy's 5A medium (Gibco); and DU-145 and H1299 cells were maintained in RPMI 1640 medium (Gibco), supplemented with 10% fetal bovine serum (FBS; Gibco) and 1% antibiotics (10.00 units/mL penicillin and 10.00 mg/mL streptomycin; Gibco). Cells were preserved in tissue culture flasks at 37° C. and 5% CO2. Culture medium was replaced every three days.
(§2) Cell Viability Assay. The effect of each compound on cell viability was tested using the MTT assay (81). Briefly, 9000 cells/well were grown in 96-well plates for 12 h. Then these cells were incubated with either DMSO (control) or nine different concentration between 0.01-50 μM of the test compounds for 24, 48, and 72 h. Three hours before the termination point, 20 μL of MTT were added to measure cellular viability. The resultant formazan crystals were dissolved in 50 μL of DMSO, and absorbance was measured at 570 nm and 630 nm wavelengths. IC50, GI50, TGI and LC50 values were calculated using OriginPro 8.5.1.
(§3) Evaluation of the antiproliferative activities of the novel molecules. […] These four cell lines were treated with each compound at three concentrations (5, 25 and 50 μM) for 48 h.

H1299 (lung carcinoma) = assay: MTT cell viability assay, H1299; details: for cell viability: 48 h
Description: as §1, §2, §3

HCT-116 CRC cells = assay: MTT cell viability assay, HCT-116; type: cell-based, human; details: read-out: IC50
Description: as §1, §2

[2] = tested on: human CRC cells (HT-29, HCT-116, RKO and CACO-2); assay: MTT assay, panel of four CRC cells; type: cell-based; details: 4 CRC cells
Description: Cell Culture Conditions. […] Culture medium was replaced every three days.
Evaluation of the antiproliferative activity of methylseleno-NSAIDs, MSA and NSAIDs alone or in combination. […] CRC cells were treated for 24, 48 and 72 h at different concentrations to stablish the dose-response curves.

HT-29 cells [3] = assay: Cell cycle analysis by flow cytometry; type: cell-based, human; details: HT-29, 24 h; for population of cells in the S-phase: compared with vehicle; for population of cells in G1 and G2/M phases: compared with vehicle (DMSO)
Description: Cell Cycle Analysis. Cell cycle analyses were determined by following a flow cytometry protocol as described earlier (82). In brief, HT-29 cells were serum deprived for 72 hours to get them synchronized. At the end of 72 hours, cells were supplied with fresh medium or fresh medium with 1, 2.5, 5 and 10 μM of 1a and 6a for 24 hours. After each time point, the cells were fixed in ice cold 70% ethanol. Fixed cells were washed with 1×PBS and suspended in PI staining solution. PI staining solution was made by adding 0.1% (v/v) triton X-100, 20 mg of DNase-free RNase A, and 2 mg of PI in 100 mL of PBS. After staining for 15 min, the cells were analyzed by flow cytometer (Coulter Epics XL, Beckman Coulter).
Compounds 1a and 6a inhibited CRC cell growth by inducing cell cycle arrest. We investigated the effect 1a and 6a on the cell cycle by flow cytometry.

Cyclin B1 = assay: Western blot protein expression, Cyclin B1; type: cell-based, human; details: HT-29, IC50 dose, 12 h and 24 h
Description: (§4) Protein Expression Analysis. Western Blot was performed to assess the expression level of different proteins before and after treatment. In brief, HT-29 cells were treated with the compound for different time intervals and the whole-cell lysates were made by lysing cells using RIPA buffer (Thermo Scientific, USA). Protease (Roche, USA) and phosphatase inhibitor cocktails (Sigma-Aldrich, USA) were used to prevent the degradation of the proteins present in the lysate. The resulting lysates were incubated on ice for 30 min and spun at 10,000 rpm for 15 min to pellet down cell debris. The total protein concentration was determined using Bradford assay (Thermo Scientific, USA). Equal amounts of cell lysates were resolved using NuPAGE gel 4-12% (Life Technologies, Carlsbad, Calif.). The resolved proteins were electro-transferred to a PVDF membrane and different antibodies were used to probe the protein expression levels. Enhanced Chemiluminescent reagent (Life technologies, USA) was used to detect the protein of interest.
(§5) To further explore the underlying mechanism of the cell cycle arrest, we studied the expression levels of the different proteins involved in the cell cycle regulation. […] At both time intervals of 12 h and 24 h, the expression levels of cell cycle regulatory proteins cyclin E1 and cyclin B1 were inhibited while p21 was induced (FIG. 7B).

Cyclin E1 = assay: Western blot protein expression, Cyclin E1; type: cell-based, human; details: HT-29, IC50 dose, 12 h and 24 h
Description: as §4, §5

p21 = assay: Western blot protein expression, p21; type: cell-based, human; details: HT-29, IC50 dose, 12 h and 24 h
Description: as §4, §5

HT-29 cells [4] = assay: Annexin V & Dead cell apoptosis assay; type: cell-based, human; details: HT29, 5 μM, 12 h
Description: (§6) Apoptosis assay. Induction of apoptosis after the treatment with compounds 1a and 6a were analyzed using Annexin V & Dead cell assay kit and Caspase 3/7 Assay kit (EMD Millipore, Billercia, Mass.) using Muse cell analyzer following manufacturer's protocol. Briefly, the HT-29 cells were plated in triplicates in a six-well plate at densities of 1×10^5 cells/well. Following day, the cells were treated with the compounds 1a and 6a and incubated for 48 h. At the end of the treatment duration, the cells were prepared following manufacturer's guidelines and the data were acquired using Muse 1.4 software.
(§7) Compounds 1a and 6a induced apoptosis in CRC cells. We further investigated whether the inhibition of cell cycle leads to apoptosis. In pursuit of this, HT29 cells were treated with 5 μM of the compounds 1a and 6a for indicated time intervals. Apoptosis was measured by using Annexin V & Dead cell assay kit and Caspase 3/7 Assay kit using Muse cell analyzer following manufacturer's protocol. The live cell population resided in the lower left quadrant and they start shifting towards the lower right quadrant (early apoptotic) or to upper right quadrant (late apoptotic/dead) after treatments. […] A similar trend was also observed after 6a treatment where the live cell population were decreased from <75% to <65% after 12 h and 24 h treatment, respectively.

HT-29 cells [5] = assay: Caspase 3/7 assay; type: cell-based, human; details: HT29, 5 μM
Description: as §6, §7

[6] = Homo sapiens, PANC-1, 48 h, read-out: cell viability
[7] = Homo sapiens, NCI-H1299, 48 h, read-out: cell viability

With C[Se]C(=O)CC1=C(C)/C(=C/c2ccc([S+](C)[O-])cc2)c2ccc(F)cc21 (stereo not shown) [Compound 6a, Se-methyl (Z)-2-(5-fluoro-2-methyl-1-(4-(methylsulfinyl)benzylidene)-1H-indenyl)ethaneselenoate] as the compound, how does the cell viability ([1]; Panc-1, 5 μM) read?
Its cell viability is 49.4 ± 20.1%.

What about the cell viability ([1]; Panc-1, 25 μM) of the same compound?
Its cell viability is 29.0 ± 9.5%.

What about the cell viability ([1]; Panc-1, 50 μM) of the same compound?
Its cell viability is 21.3 ± 9.2%.

What about the cell viability (H1299 (lung carcinoma); H1299, 5 μM) of the same compound?
The cell viability was 53.4 ± 20.2%.

What about the cell viability (H1299 (lung carcinoma); H1299, 25 μM) of the same compound?
Its cell viability is 41.9 ± 14.9%.

What about the cell viability (H1299 (lung carcinoma); H1299, 50 μM) of the same compound?
Its cell viability is 31.3 ± 6.4%.

What about the IC50 (HCT-116 CRC cells; HCT-116, 24 h) of the same compound?
The IC50 was 7.3 ± 2.3 µM.

And the IC50 (HCT-116 CRC cells; HCT-116, 48 h)?
Its IC50 is 3.2 ± 0.7 µM.

What about the IC50 (HCT-116 CRC cells; HCT-116, 72 h) of the same compound?
Its IC50 is 1.8 ± 0.6 µM.

And the “anti-tumoral activity versus MSA and NSAIDs as single agents or combined” value [2]?
The value was “higher anti-tumoral activity”.

What about the “population of cells in the S-phase” value (HT-29 cells [3]) of the same compound?
Its value is “drastically reduced”.

And the “population of cells in G1 and G2/M phases” value (HT-29 cells [3])?
Its value is “increase”.

What about the “expression level of Cyclin B1” value (Cyclin B1) of the same compound?
Its value is “went down substantially”.

And the “expression level of Cyclin E1” value (Cyclin E1)?
Its value is “went down substantially”.

And the “expression level of p21” value (p21)?
Its value is “sharp increase”.

And the live cells (HT-29 cells [4])?
The live cells was less than 75%.

What about the apoptotic cell population (HT-29 cells [5]) of the same compound?
The apoptotic cell population was “time dependent increase”.

With C[Se]C(=O)c1ccccc1OC(C)=O [Compound 1a, 2-((methylselanyl)carbonyl)phenyl acetate] as the compound, how does the viability at 5 µM [1, 6] read?
Its viability at 5 µM is 43.7 ± 12.1%.

What about the viability at 25 µM [1, 6] of the same compound?
The viability at 25 µM was 36.9 ± 6.3%.

And the viability at 50 µM [1, 6]?
The viability at 50 µM was 36.8 ± 6.8%.

And the viability at 5 µM (H1299 (lung carcinoma); [7])?
The viability at 5 µM was 48.7 ± 5%.

What about the viability at 25 µM (H1299 (lung carcinoma); [7]) of the same compound?
The viability at 25 µM was 41.6 ± 7.2%.

What about the viability at 50 µM (H1299 (lung carcinoma); [7]) of the same compound?
The viability at 50 µM was 31.4 ± 7.7%.

And the IC50 (HCT-116 CRC cells; Homo sapiens, HCT-116, 24 h)?
Its IC50 is greater than 50 µM.

And the IC50 (HCT-116 CRC cells; Homo sapiens, HCT-116, 48 h)?
The IC50 was 2.2 ± 0.3 µM.

And the IC50 (HCT-116 CRC cells; Homo sapiens, HCT-116, 72 h)?
The IC50 was 1 ± 0.2 µM.

And the “anti-tumoral activity versus MSA and NSAIDs as single agents or combined” value [2]?
The value was “higher anti-tumoral activity”.

And the “population of cells in the S-phase” value (HT-29 cells [3])?
Its value is “drastically reduced”.

What about the “population of cells in G1 and G2/M phases” value (HT-29 cells [3]) of the same compound?
The value was “increase”.

What about the “expression level of Cyclin B1” value (Cyclin B1) of the same compound?
Its value is “went down substantially”.

What about the “expression level of Cyclin E1” value (Cyclin E1) of the same compound?
The value was “went down substantially”.

And the “expression level of p21” value (p21)?
Its value is “sharp increase”.

And the live cells (HT-29 cells [4])?
Its live cells is less than 76%.

And the apoptotic cell population (HT-29 cells [5])?
Its apoptotic cell population is “time dependent increase”.
